Measured values: patent US20050197350A1, “Novel quinoline, tetrahydroquinazoline, and pyrimidine derivatives and methods of treatment related to the use thereof” (TAISHO PHARMACEUTICAL CO., LTD., priority 2003, published 2005)

Tested on: MCH receptors
Experiment: MCH receptor activity class (method not given)
Conditions: MCH receptor; class by percent of control at 10^-7 M or IC50

SMILES | class
COc1cccc(CC(=O)NC[C@H]2CC[C@@H](Nc3cc(N(C)C)c4ccccc4n3)CC2)c1 [compound 194] | 3 (Class 3 The value of percent of control at 10^−7 M was more than 60% or the value of IC50 was more than 200 nM.)
CN(C)c1cc(N[C@H]2CC[C@@H](CNC(=O)Cc3ccc(F)cc3)CC2)nc2ccccc12 [compound 195] | 3 (Class 3 The value of percent of control at 10^−7 M was more than 60% or the value of IC50 was more than 200 nM.)
COc1ccc(CC(=O)NC[C@H]2CC[C@@H](Nc3cc(N(C)C)c4ccccc4n3)CC2)cc1 [compound 196] | 3 (Class 3 The value of percent of control at 10^−7 M was more than 60% or the value of IC50 was more than 200 nM.)
Cc1cc(C(=O)NC[C@H]2CC[C@@H](Nc3cc(N(C)C)c4ccccc4n3)CC2)c(C(F)(F)F)o1 [compound 197] | 3 (Class 3 The value of percent of control at 10^−7 M was more than 60% or the value of IC50 was more than 200 nM.)
Cc1cc(C(=O)NC[C@H]2CC[C@@H](Nc3cc(N(C)C)c4ccccc4n3)CC2)c(C)o1 [compound 198, N-[(cis-4-{[4-(dimethylamino)quinolin-2-yl]amino}cyclohexyl)methyl]-2,5-dimethyl-3-furamide] | 3 (Class 3 The value of percent of control at 10^−7 M was more than 60% or the value of IC50 was more than 200 nM.)
CCOc1ccccc1C(=O)NC[C@H]1CC[C@@H](Nc2cc(N(C)C)c3ccccc3n2)CC1 [compound 199] | 3 (Class 3 The value of percent of control at 10^−7 M was more than 60% or the value of IC50 was more than 200 nM.)
CN(C)c1cc(N[C@H]2CC[C@@H](CNC(=O)c3ccc(F)c(Cl)c3)CC2)nc2ccccc12 [compound 200] | 3 (Class 3 The value of percent of control at 10^−7 M was more than 60% or the value of IC50 was more than 200 nM.)
Cc1ccc(C(=O)NC[C@H]2CC[C@@H](Nc3cc(N(C)C)c4ccccc4n3)CC2)cc1F [compound 201, N-[(cis-4-{[4-(dimethylamino)quinolin-2-yl]amino}cyclohexyl)methyl]-3-fluoro-4-methylbenzamide] | 3 (Class 3 The value of percent of control at 10^−7 M was more than 60% or the value of IC50 was more than 200 nM.)
CN(C)c1cc(N[C@H]2CC[C@@H](CNC(=O)CC3CCCC3)CC2)nc2ccccc12 [compound 202] | 3 (Class 3 The value of percent of control at 10^−7 M was more than 60% or the value of IC50 was more than 200 nM.)
COc1cc(OC)cc(C(=O)NC[C@H]2CC[C@@H](Nc3cc(N(C)C)c4ccccc4n3)CC2)c1 [compound 203, N-[(cis-4-{[4-(dimethylamino)quinolin-2-yl]amino}cyclohexyl)methyl]-3,5-dimethoxybenzamide] | 3 (Class 3 The value of percent of control at 10^−7 M was more than 60% or the value of IC50 was more than 200 nM.)
CN(C)c1cc(N[C@H]2CC[C@@H](CNC(=O)c3ccc(C#N)cc3)CC2)nc2ccccc12 [compound 204] | 3 (Class 3 The value of percent of control at 10^−7 M was more than 60% or the value of IC50 was more than 200 nM.)
CN(C)c1cc(N[C@H]2CC[C@@H](CNC(=O)c3cc(C(F)(F)F)cc(C(F)(F)F)c3)CC2)nc2ccccc12 [compound 205, N-[(cis-4-{[4-(dimethylamino)quinolin-2-yl]amino}cyclohexyl)methyl]-3,5-bis(trifluoromethyl)benzamide] | 3 (Class 3 The value of percent of control at 10^−7 M was more than 60% or the value of IC50 was more than 200 nM.)
CN(C)c1cc(N[C@H]2CC[C@@H](CNC(=O)/C=C/c3ccc([N+](=O)[O-])cc3)CC2)nc2ccccc12 [compound 206] | 2 (Class 2: The value of percent of control at 10^−7 M was from 40% to 60% or the value of IC′50 was from 50 nM to 200 nM.)
CN(C)c1cc(N[C@H]2CC[C@@H](CNC(=O)Cc3ccccc3Br)CC2)nc2ccccc12 [compound 207] | 3 (Class 3 The value of percent of control at 10^−7 M was more than 60% or the value of IC50 was more than 200 nM.)
Cc1cc(C(=O)NC[C@H]2CC[C@@H](Nc3cc(N(C)C)c4ccccc4n3)CC2)ccc1F [compound 208, N-[(cis-4-{[4-(dimethylamino)quinolin-2-yl]amino}cyclohexyl)methyl]-4-fluoro-3-methylbenzamide] | 3 (Class 3 The value of percent of control at 10^−7 M was more than 60% or the value of IC50 was more than 200 nM.)
CN(C)c1cc(N[C@H]2CC[C@@H](CNC(=O)c3ccccc3SC(F)F)CC2)nc2ccccc12 [compound 209] | 3 (Class 3 The value of percent of control at 10^−7 M was more than 60% or the value of IC50 was more than 200 nM.)
CN(C)c1cc(N[C@H]2CC[C@@H](CNC(=O)c3cc(Cl)sc3Cl)CC2)nc2ccccc12 [compound 210] | 3 (Class 3 The value of percent of control at 10^−7 M was more than 60% or the value of IC50 was more than 200 nM.)
CCCSc1ncccc1C(=O)NC[C@H]1CC[C@@H](Nc2cc(N(C)C)c3ccccc3n2)CC1 [compound 211] | 3 (Class 3 The value of percent of control at 10^−7 M was more than 60% or the value of IC50 was more than 200 nM.)
CN(C)c1cc(N[C@H]2CC[C@@H](CNC(=O)c3cc(C(C)(C)C)nn3Cc3ccccc3)CC2)nc2ccccc12 [compound 212] | 3 (Class 3 The value of percent of control at 10^−7 M was more than 60% or the value of IC50 was more than 200 nM.)
CN(C)c1cc(N[C@H]2CC[C@@H](CNC(=O)c3cc(C(C)(C)C)nn3C)CC2)nc2ccccc12 [compound 213] | 3 (Class 3 The value of percent of control at 10^−7 M was more than 60% or the value of IC50 was more than 200 nM.)
C/C(=C\c1ccccc1)C(=O)NC[C@H]1CC[C@@H](Nc2cc(N(C)C)c3ccccc3n2)CC1 [compound 214] | 3 (Class 3 The value of percent of control at 10^−7 M was more than 60% or the value of IC50 was more than 200 nM.)
CN(C)c1cc(N[C@H]2CC[C@@H](CNC(=O)c3cncc(Br)c3)CC2)nc2ccccc12 [compound 215] | 3 (Class 3 The value of percent of control at 10^−7 M was more than 60% or the value of IC50 was more than 200 nM.)

Same assay, conditions: class by percent of control at 10^-7 M or IC50

SMILES | class
CN(C)c1cc(N[C@H]2CC[C@@H](CNC(=O)Cc3cccc4ccccc34)CC2)nc2ccccc12 [compound 216] | 3 (Class 3 The value of percent of control at 10^−7 M was more than 60% or the value of IC50 was more than 200 nM.)
Cc1cc(C(=O)NC[C@H]2CC[C@@H](Nc3cc(N(C)C)c4ccccc4n3)CC2)nn1C(C)(C)C [compound 217] | 3 (Class 3 The value of percent of control at 10^−7 M was more than 60% or the value of IC50 was more than 200 nM.)
CN(C)c1cc(N[C@H]2CC[C@@H](CNC(=O)c3csc4ccccc34)CC2)nc2ccccc12 [compound 218] | 3 (Class 3 The value of percent of control at 10^−7 M was more than 60% or the value of IC50 was more than 200 nM.)
CN(C)c1cc(N[C@H]2CC[C@@H](CNC(=O)c3ccc(-c4ccccc4)cc3)CC2)nc2ccccc12 [compound 219] | 3 (Class 3 The value of percent of control at 10^−7 M was more than 60% or the value of IC50 was more than 200 nM.)
CN(C)c1cc(N[C@H]2CC[C@@H](CNC(=O)c3ccccc3Br)CC2)nc2ccccc12 [compound 220] | 3 (Class 3 The value of percent of control at 10^−7 M was more than 60% or the value of IC50 was more than 200 nM.)
CN(C)c1cc(N[C@H]2CC[C@@H](CNC(=O)c3c(Cl)cccc3Cl)CC2)nc2ccccc12 [compound 221] | 2 (Class 2: The value of percent of control at 10^−7 M was from 40% to 60% or the value of IC′50 was from 50 nM to 200 nM.)
CN(C)c1cc(N[C@H]2CC[C@@H](CNC(=O)c3ccccc3I)CC2)nc2ccccc12 [compound 222] | 3 (Class 3 The value of percent of control at 10^−7 M was more than 60% or the value of IC50 was more than 200 nM.)
Cc1ccccc1C(=O)NC[C@H]1CC[C@@H](Nc2cc(N(C)C)c3ccccc3n2)CC1 [compound 223] | 3 (Class 3 The value of percent of control at 10^−7 M was more than 60% or the value of IC50 was more than 200 nM.)
CN(C)c1cc(N[C@H]2CC[C@@H](CNC(=O)c3cccc(Cl)c3Cl)CC2)nc2ccccc12 [compound 224] | 3 (Class 3 The value of percent of control at 10^−7 M was more than 60% or the value of IC50 was more than 200 nM.)
CN(C)c1cc(N[C@H]2CC[C@@H](CNC(=O)c3cc(F)ccc3Cl)CC2)nc2ccccc12 [compound 225] | 3 (Class 3 The value of percent of control at 10^−7 M was more than 60% or the value of IC50 was more than 200 nM.)
CN(C)c1cc(N[C@H]2CC[C@@H](CNC(=O)c3cccc4c3-c3ccccc3C4=O)CC2)nc2ccccc12 [compound 226] | 3 (Class 3 The value of percent of control at 10^−7 M was more than 60% or the value of IC50 was more than 200 nM.)
CN(C)c1cc(N[C@H]2CC[C@@H](CNC(=O)c3c(F)ccc(F)c3F)CC2)nc2ccccc12 [compound 227] | 3 (Class 3 The value of percent of control at 10^−7 M was more than 60% or the value of IC50 was more than 200 nM.)
CN(C)c1cc(N[C@H]2CC[C@@H](CNC(=O)c3cccc(F)c3F)CC2)nc2ccccc12 [compound 228] | 3 (Class 3 The value of percent of control at 10^−7 M was more than 60% or the value of IC50 was more than 200 nM.)
CN(C)c1cc(N[C@H]2CC[C@@H](CNC(=O)c3c(F)cccc3F)CC2)nc2ccccc12 [compound 229] | 3 (Class 3 The value of percent of control at 10^−7 M was more than 60% or the value of IC50 was more than 200 nM.)
CN(C)c1cc(N[C@H]2CC[C@@H](CNC(=O)c3c(F)cccc3C(F)(F)F)CC2)nc2ccccc12 [compound 230] | 3 (Class 3 The value of percent of control at 10^−7 M was more than 60% or the value of IC50 was more than 200 nM.)
Cc1cc(C)c(C(=O)NC[C@H]2CC[C@@H](Nc3cc(N(C)C)c4ccccc4n3)CC2)c(C)c1 [compound 231, N-[(cis-4-{[4-(dimethylamino)quinolin-2-yl]amino}cyclohexyl)methyl]-2,4,6-trimethylbenzamide] | 1 (Class 1: The value of percent of control at 10^−7 M was less than 40% or the value of IC50 was less than 50 nM.)
CN(C)c1cc(N[C@H]2CC[C@@H](CNC(=O)c3c(F)cccc3Cl)CC2)nc2ccccc12 [compound 232] | 3 (Class 3 The value of percent of control at 10^−7 M was more than 60% or the value of IC50 was more than 200 nM.)
